Laboratory results reported in paper PMC10000267, “ALA‐A2 Is a Novel Anticancer Peptide Inspired by Alpha‐Lactalbumin: A Discovery from a Computational Peptide Library, In Silico Anticancer Peptide Screening and In Vitro Experimental Validation” (Global Challenges, 2023).
Residues, ends and D or L forms follow the SMILES beside them.

Tested on: A549 lung adenocarcinoma cells
Settings: A549, 200 µM, 24 h; SWATH; n = 9 per group
Method: In brief, A549 lung adenocarcinoma cells were seeded at a density of 1 × 10^5 cells/well in a 24‐well plate. After overnight incubation, the media were changed with fresh media with or without 200 µM ALA‐A2 and incubated at 37 °C in 5%CO2 for 24 h. The cells were washed twice with PBS before lysis with Laemmli lysis buffer (62.5 mM Tris‐HCl, pH 6.8, 10% v/v glycerol, 2% w/v SDS, and 2.5% v/v beta‐mercaptoethanol). Total protein was quantified using the Bradford protein assay (Bio‐Rad, Hercules, USA). 10 µg of protein was resolved by 12% SDS–PAGE before staining with Coomassie brilliant blue G‐250, and the gel was cut into small pieces for in‐gel tryptic digestion. An amount of peptide sample corresponding to 2.5 µg of total protein was resolved in an Eksigent nanoLC ultra nanoflow high performance liquid chromatography in tandem with a TripleTOF 6600+ mass spectrometer (ABSciex, Toronto, Canada) set for information‐dependent acquisition (IDA) and DIA modes. The peptides were loaded onto a C18 column trap (Nano Trap RP‐1, 3 µm 120 Å, 10 mm × 0.075 mm; Phenomenex, CA, USA) at a flow rate of 3 µL min^−1 of 0.1% formic acid in water for 10 min to desalt and concentrate the sample, which was then resolved by HPLC using a stationary phase of a C18 analytical column (bioZen Peptide Polar C18 nanocolumn, 75 µm × 15 cm, particle size 3 µm, 120 Å; Phenomenex) with mobile phase gradients at a flow rate of 300 nL min^−1 of 3–30% acetonitrile/0.1% formic acid for 60 min, 30–40% acetonitrile/0.1% formic acid for 10 min, 40–80% acetonitrile/0.1% formic acid for 2 min, 80% acetonitrile/0.1% formic acid for 6 min, 80–3% acetonitrile/0.1% formic acid for 2 min, and 3% acetonitrile/0.1% formic acid for 25 min. The eluate was ionized and sprayed into the mass spectrometer using OptiFlow Turbo V Source (Sciex). Ion source gas 1, ion source gas 2, and curtain gas were set at 19, 0, and 25 vendor arbitrary units, respectively. The interface heater temperature was 150 °C and ion spray voltage was 3.3 kV.
Each cycle performed one time of flight (TOF) scan (250 ms accumulation time, 350–1250 m/z window with a charge state of +2) followed by IDA of the 100 most intense ions, while the minimum MS signal was set to 150 counts. The MS/MS scan was operated in high sensitivity mode with 50 ms accumulation time and 50 ppm mass tolerance. Former MS/MS candidate ions were excluded for a period of 12 s after their first occurrence to reduce the redundancy of identified peptides. DIA mode was performed in a range of 350–1500 m/z using a predefined mass window of 7‐m/z with an overlap of 1‐m/z for 157 transmissible windows. MS scan was set at 2044 cycles, where each cycle performed one TOF‐MS scan type (50 ms accumulation time across 100–1500 precursor mass range) acquired in every cycle for a total cycle time of 3.08 s. MS spectra of 100–1500 m/z were collected with an accumulation time of 96 ms per SWATH window width. Resolution for MS1 was 35 000 and SWATH‐MS2 scan was 30 000. Rolling collision energy mode with collision energy spread of 15 eV was applied. The IDA and DIA data (.wiff) were recorded by Analyst‐TF v.1.8 software (ABSciex).
A total of 18 wiff files of IDA experiments (two groups; three biological replicates per group; three technical replicates per biological sample) were combined and searched using Protein Pilot v.5.0.2.0 software (ABSciex) against the Swiss‐Prot database (UniProtKB 2022_01) Homo sapiens (20385 proteins in database) with the searching parameters as follows; alkylation on cysteine by iodoacetamide, trypsin enzymatic digestion, one missed cleavage allowed, monoisotopic mass, and 1% false discovery rate.

## CC(C)C[C@H](NC(=O)[C@@H](N)CCCCN)C(=O)N[C@@H](Cc1c[nH]c2ccccc12)C(=O)N[C@@H](CS)C(=O)N[C@@H](CCCCN)C(=O)N[C@@H](CO)C(=O)N[C@@H](CO)C(=O)N[C@@H](CCC(N)=O)C(=O)N[C@H](C(=O)N1CCC[C@H]1C(=O)N[C@@H](CCC(N)=O)C(=O)N[C@@H](CO)C(=O)N[C@@H](CCCNC(=N)N)C(=O)O)C(C)C [ALA‐A2] (H-KLWCKSSQVPQSR-OH)
  Fold‐change [treated/ untreated]: 40S ribosomal protein SA (RSSA, P08865): 0.25
  Fold‐change [treated/ untreated]: 60S ribosomal protein L6 (RL6, Q02878): 2.87
  Fold‐change [treated/ untreated]: Actin, cytoplasmic 2 (ACTG, P63261): 0.09
  Fold‐change [treated/ untreated]: Aldo‐keto reductase family 1 member B10 (AK1BA, O60218): 0.29
  Fold‐change [treated/ untreated]: Annexin A4 (ANXA4, P09525): 2.98
  Fold‐change [treated/ untreated]: Annexin A7 (ANXA7, P20073): 3.29
  Fold‐change [treated/ untreated]: Chloride intracellular channel protein 1 (CLIC1, O00299): 3.02
  Fold‐change [treated/ untreated]: Elongation factor 1‐alpha‐like 3 (EF1A3, Q5VTE0): 0.15
  Fold‐change [treated/ untreated]: Elongation factor 1‐gamma (EF1G, P26641): 0.31
  Fold‐change [treated/ untreated]: Endoplasmin (ENPL, P14625): 0.38
  Fold‐change [treated/ untreated]: Glyceraldehyde‐3‐phosphate dehydrogenase (G3P, P04406): 0.32
  Fold‐change [treated/ untreated]: Heat shock 70 kDa protein 8 (HSPA8, P11142): 0.25
  Fold‐change [treated/ untreated]: Heat shock protein HSP90 alpha (HSP90AA1, P07900): 0.26
  Fold‐change [treated/ untreated]: Heat shock protein HSP90 beta (HSP90AB1, P08238): 0.40
  Fold‐change [treated/ untreated]: Heterogeneous nuclear ribonucleoprotein A/B (ROAA, Q99729): 2.35
  Fold‐change [treated/ untreated]: Heterogeneous nuclear ribonucleoproteins A2/B1 (ROA2, P22626): 0.25
  Fold‐change [treated/ untreated]: Histone H1.3 (H13, P16402): 0.32
  Fold‐change [treated/ untreated]: Histone H2A type 2‐A (H2A2A, Q6FI13): 0.48
  Fold‐change [treated/ untreated]: Histone H4 (H4, P62805): 0.26
  Fold‐change [treated/ untreated]: Hsp70‐binding protein 1 (HPBP1, Q9NZL4): 0.48
  Fold‐change [treated/ untreated]: Importin‐5 (IPO5, O00410): 2.22
  Fold‐change [treated/ untreated]: Junction plakoglobin (PLAK, P14923): 2.05
  Fold‐change [treated/ untreated]: Keratin, type I cytoskeletal 18 (K1C18, P05783): 0.35
  Fold‐change [treated/ untreated]: Keratin, type I cytoskeletal 19 (K1C19, P08727): 0.34
  Fold‐change [treated/ untreated]: Leucine‐rich PPR motif‐containing protein (LPPRC, P42704): 2.06
  Fold‐change [treated/ untreated]: Neurofibromin (NF1, P21359): 0.07
  Fold‐change [treated/ untreated]: Peroxiredoxin‐1 (PRDX1, Q06830): 0.26
  Fold‐change [treated/ untreated]: Pyruvate kinase PKM (KPYM, P14618): 0.43
  Fold‐change [treated/ untreated]: RNA‐binding protein Raly (RALY, Q9UKM9): 3.57
  Fold‐change [treated/ untreated]: Serine/arginine‐rich splicing factor 3 (SRSF3, P84103): 0.33
  Fold‐change [treated/ untreated]: TAR DNA‐binding protein 43 (TADBP, Q13148): 4.07
  Fold‐change [treated/ untreated]: Threonine‐tRNA ligase 1 (SYTC, P26639): 2.61
  Fold‐change [treated/ untreated]: Transaldolase (TALDO, P37837): 0.43
  Fold‐change [treated/ untreated]: Transketolase (TKT, P29401): 0.35
  Fold‐change [treated/ untreated]: Tubulin beta chain (TBB5, P07437): 0.27
  Fold‐change [treated/ untreated]: T‐complex protein 1 subunit delta (TCPD, P50991): 2.39
  Fold‐change [treated/ untreated]: T‐complex protein 1 subunit gamma (TCPG, P49368): 0.46
  Fold‐change [treated/ untreated]: Ubiquitin‐60S ribosomal protein L40 (UBA52, P62987): 0.41
